Data published in patent publication US3957764A, “6-Aminopenicillanic acid derivatives” (priority 1969, dated 1976).
Values after ≈ are worked out from the molar mass of the structure shown. Like-named read-outs stand apart in the source and are kept apart here.

Experiments:
Solubility in water = format: physicochemical
Salmonella enteritidis = assay: Antibacterial spectrum (Table A), 50% inhibition; format: cell-based; conditions: Salmonella enterica
Description: (§1) This effect is quite unexpected, since of the hitherto known derivatives of 6-aminopenicillanic acid only those being substituted with an acyl group at the 6-amino group have shown an antibacterial effect. The effect on penicillin-sensitive, gram-positive bacteria is less than that of benzylpenicillin and of α-aminobenzylpenicillin, whereas the effect on gram-negative bacilli, e.g. coli and salmonella species, is on a many times higher level than that of e.g. benzylpenicillin and α-aminobenzylpenicillin. […] IC50 means the concentration required for 50% inhibition.

[1] = test system: Corynebacterium xerosis FF; assay: Antibacterial spectrum (Table A), 50% inhibition; format: cell-based
Description: as §1

Salmonella chlerasuis = assay: Antibacterial spectrum (Table A), 50% inhibition; format: cell-based
Description: as §1

[2] = test system: Escherichia coli, average of 36 strains; assay: Antibacterial spectrum (Table A), 50% inhibition; format: cell-based
Description: as §1

[3] = test system: Salmonella schottmuelleri; assay: Antibacterial spectrum (Table A), 50% inhibition; format: cell-based
Description: as §1

Alcaligenes faecalis = assay: Antibacterial spectrum (Table A), 50% inhibition; format: cell-based
Description: as §1

Vibrio comma = assay: Antibacterial spectrum (Table A), 50% inhibition; format: cell-based; conditions: Vibrio cholerae
Description: as §1

Bacillus subtilis KA2 = assay: Antibacterial spectrum (Table A), 50% inhibition; format: cell-based
Description: as §1

Salmonella paratyphi A = assay: Antibacterial spectrum (Table A), 50% inhibition; format: cell-based; conditions: Salmonella enterica
Description: as §1

[4] = test system: Klebsiella pneumoniae, average of 12 strains; assay: Antibacterial spectrum (Table A), 50% inhibition; format: cell-based
Description: as §1

Streptococcus pyogenes = assay: Antibacterial spectrum (Table A), 50% inhibition; format: cell-based
Description: as §1

Bacillus megatherium KD = assay: Antibacterial spectrum (Table A), 50% inhibition; format: cell-based
Description: as §1

[5] = test system: Erysipelothrix insidiosa FU; assay: Antibacterial spectrum (Table A), 50% inhibition; format: cell-based; conditions: Erysipelothrix rhusiopathiae
Description: as §1

Pseudomonas aeruginosa = assay: Antibacterial spectrum (Table A), 50% inhibition; format: cell-based
Description: as §1

[6] = test system: Diplococcus pneumoniae EA; assay: Antibacterial spectrum (Table A), 50% inhibition; format: cell-based; conditions: Streptococcus pneumoniae
Description: as §1

Salmonella typhimurium = assay: Antibacterial spectrum (Table A), 50% inhibition; format: cell-based; conditions: Salmonella enterica
Description: as §1

[7] = test system: Salmonella abortivoequina; assay: Antibacterial spectrum (Table A), 50% inhibition; format: cell-based
Description: as §1

[8] = test system: Proteus, average of 8 strains; assay: Antibacterial spectrum (Table A), 50% inhibition; format: cell-based
Description: as §1

Salmonella hirschfeldii = assay: Antibacterial spectrum (Table A), 50% inhibition; format: cell-based
Description: as §1

Shigella flexneri = assay: Antibacterial spectrum (Table A), 50% inhibition; format: cell-based
Description: as §1

[9] = test system: Staph. aureus, penicillinase producing; assay: Antibacterial spectrum (Table A), 50% inhibition; format: cell-based; conditions: Staphylococcus aureus
Description: as §1

[10] = test system: Staph. aureus, penicillin sensitive; assay: Antibacterial spectrum (Table A), 50% inhibition; format: cell-based; conditions: Staphylococcus aureus
Description: as §1

[11] = test system: Streptococcus faecalis E13; assay: Antibacterial spectrum (Table A), 50% inhibition; format: cell-based; conditions: Enterococcus faecalis
Description: as §1

Shigella dysenteriae = assay: Antibacterial spectrum (Table A), 50% inhibition; format: cell-based
Description: as §1

Salmonella typhosa = assay: Antibacterial spectrum (Table A), 50% inhibition; format: cell-based; conditions: Salmonella enterica
Description: as §1

[12] = test system: Listeria Monocytogenes FT; assay: Antibacterial spectrum (Table A), 50% inhibition; format: cell-based
Description: as §1

[13] = test system: Escherichia coli HA2 Leo strain; assay: Antibacterial activity (Tables A and B), 50% inhibition; format: cell-based; conditions: HA2LEOSTRAIN, Table A
Description: as §1
In Table B below the activity of a number of the compounds of the invention against the Escherichia coli HA2 Leo strain of Table A is shown:
The compounds of Table B were obtained by enzymatic hydrolysis of the corresponding esters described in the Examples mentioned by treatment with a 20 per cent mouse serum at 37°C in 90 minutes.

Escherichia Coli HA2 = assay: In vivo experiment: survival of mice infected with Escherichia Coli HA2 (Table C); conditions: 10 mice
Protocol: The great difference between the spectrum of the hereinbefore mentioned FL 1060 and those of G-penicillin and ampicillin indicates a difference in the mode of action. This is also supported by in vivo experiments, in which mice (weight 27 to 30 g) were infected with 0.5 ml of a 24 hour old NIH bouillon culture of Escherichia Coli HA2 1000 times diluted in gastric mucin (5%) (Orthana). After half an hour and again after 61/2 hours a single dose was given subcutaneously in 0.5 ml. of a 0.9 per cent sodium chloride solution. After 24 hours the numbers of surviving mice were registered.
All surviving mice were still alive after 4 days, when observation of them was terminated.

[14] = Salmonella enteritidis, read-out: IC50
[15] = Salmonella chlerasuis, read-out: IC50
[16] = average of 12 strains, read-out: IC50
[17] = Diplococcus pneumoniae EA, read-out: IC50
[18] = Salmonella typhimurium, read-out: IC50
[19] = Salmonella abortivoequina, read-out: IC50
[20] = Proteus, average of 8 strains, read-out: IC50
[21] = Streptococcus faecalis E13, read-out: IC50
[22] = Listeria Monocytogenes FT, read-out: IC50

Row | Compound | IC50 [2] [mg/L] | IC50 [3] [mg/L] | IC50 (Alcaligenes faecalis) [mg/L] | IC50 (Vibrio comma) [mg/L] | IC50 (Salmonella paratyphi A) [mg/L] | IC50 [5] [mg/L] | IC50 (Salmonella hirschfeldii) [mg/L] | IC50 (Shigella flexneri) [mg/L] | IC50 [9] [mg/L] | IC50 [10] [mg/L] | IC50 (Shigella dysenteriae) [mg/L] | IC50 (Salmonella typhosa) [mg/L] | IC50 [13] [mg/L] | IC50 (Salmonella enteritidis; [14]) [mg/L] | IC50 (Salmonella chlerasuis; [15]) [mg/L] | IC50 (Bacillus subtilis KA2; read-out: IC50) [mg/L] | IC50 [4, 16] [mg/L] | IC50 (Streptococcus pyogenes; read-out: IC50) [mg/L] | IC50 (Pseudomonas aeruginosa; read-out: IC50) [mg/L] | IC50 [6, 17] [mg/L] | other results
1 | CC1(C)S[C@@H]2[C@H](N=CN3CCCCCC3)C(=O)N2[C@H]1C(=O)O [Example 6, 6-[(Hexahydro-1H-azepin-1-yl)-methyleneamino]-penicillanic acid] | – | – | – | – | – | – | – | – | – | – | – | – | – | – | – | – | – | – | – | – | solubility (Solubility in water): soluble in water
2 | CC1(C)S[C@@H]2[C@H](NC(=O)Cc3ccccc3)C(=O)N2[C@H]1C(=O)O [G-Pen., benzylpenicillin] | 32 (≈ 95.7 µM) | 3.2 (≈ 9.57 µM) | 1.6 (≈ 4.78 µM) | 0.79 (≈ 2.36 µM) | 3.2 (≈ 9.57 µM) | 0.025 (≈ 0.0748 µM) | 0.13 (≈ 0.389 µM) | 10 (≈ 29.9 µM) | 100 (≈ 299 µM) | 0.016 (≈ 0.0478 µM) | 5 (≈ 15 µM) | 2 (≈ 5.98 µM) | 32 (≈ 95.7 µM) | – | – | – | – | – | – | – | IC50 (Salmonella enteritidis; ENTERITIDIS): 2.5 mg/L (≈ 7.48 µM); IC50 ([1]; Corynebacterium xerosis): 0.013 mg/L (≈ 0.0389 µM); IC50 (Salmonella chlerasuis; Salmonella): 1.6 mg/L (≈ 4.78 µM); IC50 (Bacillus subtilis KA2): 0.01 mg/L (≈ 0.0299 µM); IC50 [4]: 29 mg/L (≈ 86.7 µM); IC50 (Streptococcus pyogenes): 0.008 mg/L (≈ 0.0239 µM); IC50 (Bacillus megatherium KD; Bacillus): 0.016 mg/L (≈ 0.0478 µM); IC50 (Pseudomonas aeruginosa): > 100 mg/L; IC50 [6]: 0.01 mg/L (≈ 0.0299 µM); IC50 (Salmonella typhimurium; TYPHIMURIUM): 2.5 mg/L (≈ 7.48 µM); IC50 ([7]; Salmonella): 2.5 mg/L (≈ 7.48 µM); IC50 [8]: 5.4 mg/L (≈ 16.1 µM); IC50 ([11]; E13): 3.2 mg/L (≈ 9.57 µM); IC50 ([12]; Listeria monocytogenes): 0.1 mg/L (≈ 0.299 µM)
3 | CC1(C)S[C@@H]2[C@H](NC(=O)[C@H](N)c3ccccc3)C(=O)N2[C@H]1C(=O)O [Ampicillin, α-aminobenzylpenicillin] | 2.2 (≈ 6.3 µM) | 0.63 (≈ 1.8 µM) | 0.5 (≈ 1.43 µM) | 0.4 (≈ 1.14 µM) | 0.4 (≈ 1.14 µM) | 0.04 (≈ 0.114 µM) | 0.079 (≈ 0.226 µM) | 0.79 (≈ 2.26 µM) | 130 (≈ 372 µM) | 0.025 (≈ 0.0715 µM) | 0.63 (≈ 1.8 µM) | 0.32 (≈ 0.916 µM) | 2 (≈ 5.72 µM) | 0.4 (≈ 1.14 µM) | 0.32 (≈ 0.916 µM) | 0.025 (≈ 0.0715 µM) | 26 (≈ 74.4 µM) | 0.013 (≈ 0.0372 µM) | > 100 | 0.01 (≈ 0.0286 µM) | IC50 (Salmonella typhimurium; [18]): 0.5 mg/L (≈ 1.43 µM); IC50 [7, 19]: 0.25 mg/L (≈ 0.715 µM); IC50 [8, 20]: 1.3 mg/L (≈ 3.72 µM); IC50 [11, 21]: 0.79 mg/L (≈ 2.26 µM); IC50 [12, 22]: 0.1 mg/L (≈ 0.286 µM); per cent surviving (Escherichia Coli HA2; single dose 75 μg s.c., given twice, 24 hours): 0 per cent; per cent surviving (Escherichia Coli HA2; single dose 150 μg s.c., given twice, 24 hours): 0 per cent; per cent surviving (Escherichia Coli HA2; single dose 300 μg s.c., given twice, 24 hours (survivors alive after 4 days)): 70 per cent
4 | CC1(C)S[C@@H]2[C@H](/N=C/N3CCCCCC3)C(=O)N2[C@H]1C(=O)O [FL 1060, 6-[(hexahydro-1H-azepin-1-yl)-methyleneamino]-penicillanic acid, hydrochloric, dihydrate] | 0.089 | 0.063 | 0.63 | 0.4 | 0.13 | 20 | 0.016 | 0.05 | > 100 | 5 | 0.16 | 0.079 | 0.016 | 0.16 | 0.16 | 5 | 0.65 | 0.5 | > 100 | 3.2 | IC50 ([1]; Corynebacterium xerosis FF, read-out: IC50): 1.6 mg/L; IC50 (Bacillus megatherium KD; Bacillus megatherium KD, read-out: IC50): 0.5 mg/L; IC50 (Salmonella typhimurium; [18]): 0.063 mg/L; IC50 [7, 19]: 0.04 mg/L; IC50 [8, 20]: 0.23 mg/L; IC50 [11, 21]: > 100 mg/L; IC50 [12, 22]: 50 mg/L; per cent surviving (Escherichia Coli HA2; single dose 7.5 μg s.c., given twice, 24 hours): 0 per cent; per cent surviving (Escherichia Coli HA2; single dose 15 μg s.c., given twice, 24 hours): 0 per cent; per cent surviving (Escherichia Coli HA2; single dose 30 μg s.c., after half an hour and again after 6 1/2 hours, 24 hours (survivors alive after 4 days)): 50 per cent
